Results reported in ChEMBL document CHEMBL1201862, “PubChem BioAssay data set” (2004).
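Method: 48-hour compound exposure of cells in 96-well plates, five concentrations, linear interpolation of endpoints. At the GI50, growth is halved.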 Calls of active or inactive are those of the source. Rule as the data show it: active = GI50 up to about 1.1 µM and inactive = higher.

Tests used:
Test in all cases: NCI tumour cell line growth inhibition, 48 h
A498 = test system: A498
A549 = test system: A549
ACHN = test system: ACHN
CAKI-1 = test system: CAKI-1
CCRF-CEM = test system: CCRF-CEM
COLO 205 = test system: COLO 205
DLD-1 = test system: DLD-1
DMS-114 = test system: DMS-114
DMS-273 = test system: DMS-273
EKVX = test system: EKVX
HCC 2998 = test system: HCC 2998
HCT-116 = test system: HCT-116
HCT-15 = test system: HCT-15
HL-60 = test system: HL-60
HOP-18 = test system: HOP-18
HOP-62 = test system: HOP-62
HOP-92 = test system: HOP-92
HT-29 = test system: HT-29
IGROV-1 = test system: IGROV-1
K562 = test system: K562
KM-20L2 = test system: KM-20L2
KM12 = test system: KM12
LOX IMVI = test system: LOX IMVI
LXFL 529 = test system: LXFL 529
M14 = test system: M14
M19-MEL = test system: M19-MEL
MOLT-4 = test system: MOLT-4
Malme-3M = test system: Malme-3M
NCI-H226 = test system: NCI-H226
NCI-H23 = test system: NCI-H23
NCI-H460 = test system: NCI-H460
NCI-H522 = test system: NCI-H522
OVCAR-3 = test system: OVCAR-3
OVCAR-4 = test system: OVCAR-4
OVCAR-5 = test system: OVCAR-5
OVCAR-8 = test system: OVCAR-8
RPMI-8226 = test system: RPMI-8226
RXF 393 = test system: RXF 393
RXF 631 = test system: RXF 631
SF-268 = test system: SF-268
SF-295 = test system: SF-295
SF-539 = test system: SF-539
SK-MEL-28 = test system: SK-MEL-28
SK-MEL-2 = test system: SK-MEL-2
SK-MEL-5 = test system: SK-MEL-5
SK-OV-3 = test system: SK-OV-3
SN12C = test system: SN12C
SNB-19 = test system: SNB-19
SNB-75 = test system: SNB-75
SNB-78 = test system: SNB-78
SR = test system: SR
SW-620 = test system: SW-620
TK-10 = test system: TK-10
U-251 = test system: U-251
UACC-257 = test system: UACC-257
UACC-62 = test system: UACC-62
UO-31 = test system: UO-31
XF498 = test system: XF498

**Q.** Which results are given for `C=C(C(=O)C(=O)Oc1ccc(Cl)cc1)C(=O)c1ccc(C)cc1`?
**A.** GI50 (A498): > 100 µM (inactive); GI50 (A549): 78 µM (inactive); GI50 (ACHN): 91.4 µM (inactive); GI50 (CAKI-1): 94.4 µM (inactive); GI50 (CCRF-CEM): 22.8 µM (inactive); GI50 (COLO 205): > 100 µM (inactive); GI50 (DLD-1): 28.4 µM (inactive); GI50 (DMS-114): 30.9 µM (inactive); GI50 (DMS-273): 39.2 µM (inactive); GI50 (EKVX): > 100 µM (inactive); GI50 (HCC 2998): 26.5 µM (inactive); GI50 (HCT-116): 16.7 µM (inactive); GI50 (HCT-15): 38.8 µM; GI50 (HL-60): 17.9 µM (inactive); GI50 (HOP-18): > 100 µM (inactive); GI50 (HOP-62): > 100 µM (inactive); GI50 (HOP-92): > 100 µM (inactive); GI50 (HT-29): 31.1 µM (inactive); GI50 (IGROV-1): > 100 µM (inactive); GI50 (K562): 81.5 µM (inactive); GI50 (KM-20L2): 59.7 µM (inactive); GI50 (KM12): 21.5 µM (inactive); GI50 (LOX IMVI): < 0.01 µM (active); GI50 (LXFL 529): 27.9 µM (inactive); GI50 (M14): 28.3 µM (inactive); GI50 (M19-MEL): 17.7 µM (inactive); GI50 (MOLT-4): 58.3 µM (inactive); GI50 (Malme-3M): 78.3 µM (inactive); GI50 (NCI-H226): > 100 µM (inactive); GI50 (NCI-H23): > 100 µM (inactive); GI50 (NCI-H460): 83 µM (inactive); GI50 (NCI-H522): 17.9 µM (inactive); GI50 (OVCAR-3): 46.8 µM (inactive); GI50 (OVCAR-4): > 100 µM (inactive); GI50 (OVCAR-5): > 100 µM (inactive); GI50 (OVCAR-8): 55.3 µM (inactive); GI50 (RPMI-8226): 31.9 µM (inactive); GI50 (RXF 393): 26.4 µM (inactive); GI50 (RXF 631): 46.2 µM (inactive); GI50 (SF-268): 46.8 µM (inactive); GI50 (SF-295): 76 µM (inactive); GI50 (SF-539): 18.4 µM (inactive); GI50 (SK-MEL-28): 71.1 µM (inactive); GI50 (SK-MEL-2): > 100 µM (inactive); GI50 (SK-MEL-5): 67.6 µM (inactive); GI50 (SK-OV-3): > 100 µM (inactive); GI50 (SN12C): 49.9 µM (inactive); GI50 (SNB-19): 53.2 µM (inactive); GI50 (SNB-75): 39.2 µM (inactive); GI50 (SNB-78): 65 µM (inactive); GI50 (SR): 13.1 µM (inactive); GI50 (SW-620): 19.3 µM (inactive); GI50 (TK-10): > 100 µM (inactive); GI50 (U-251): 20.7 µM (inactive); GI50 (UACC-257): 71.8 µM (inactive); GI50 (UACC-62): 41.4 µM (inactive); GI50 (UO-31): 40.2 µM (inactive); GI50 (XF498): > 100 µM (inactive)
